From US8952024B2, “Herbicidal pyrimidone derivatives” (E I du Pont de Nemours and Company, priority 2009, dated 2015)

How the values were obtained:
Experiment in all cases: Test D pre-/postemergence plant response
Assay type in all cases: in vivo
[1] = test system: large crabgrass (Digitaria sanguinalis)
Summary of the method: (§1)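 Seeds in loam–sand blend treated preemergence, and plants at 1- to 4-leaf stage (2–18 cm) treated postemergence, with compounds in non-phytotoxic solvent with surfactant. Greenhouse for 14–21 days, then visual rating against controls, 0 (no effect) to 100 (complete control).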

[2] = test system: Russian thistle (Salsola kali)
Summary of the method: as §1

[3] = test system: dallisgrass (Paspalum dilatatum)
Summary of the method: as §1

[4] = test system: bluegrass (annual bluegrass, Poa annua)
Summary of the method: as §1

[5] = test system: guineagrass (Panicum maximum)
Summary of the method: as §1

[6] = test system: morningglory (pitted morningglory, Ipomoea lacunosa)
Summary of the method: as §1

[7] = test system: signalgrass (broadleaf signalgrass, Brachiaria platyphylla)
Summary of the method: as §1

[8] = test system: sandbur (southern sandbur, Cenchrus echinatus)
Summary of the method: as §1

[9] = test system: ragweed (common ragweed, Ambrosia elatior)
Summary of the method: as §1

[10] = test system: naked crabgrass (Digitaria nuda)
Summary of the method: as §1

[11] = test system: Surinam grass (Brachiaria decumbens)
Summary of the method: as §1

[12] = test system: kochia (Kochia scoparia)
Summary of the method: as §1

[13] = test system: mallow (common mallow, Malva sylvestris)
Summary of the method: as §1

[14] = test system: green foxtail (Setaria viridis)
Summary of the method: as §1

[15] = test system: barnyardgrass (Echinochloa crus-galli)
Summary of the method: as §1

[16] = test system: quackgrass (Elytrigia repens)
Summary of the method: as §1

[17] = Postemergence, 16 g ai/ha, scale 0 to 100
[18] = Postemergence, 31 g ai/ha, scale 0 to 100
[19] = Postemergence, 125 g ai/ha, scale 0 to 100 (0 no effect, 100 complete control)
[20] = Postemergence, 62 g ai/ha, scale 0 to 100 (0 no effect, 100 complete control)
[21] = Preemergence, 16 g ai/ha, scale 0 to 100, 0 no effect, 100 complete control
[22] = Preemergence, 31 g ai/ha, scale 0 to 100 (0 no effect, 100 complete control)
[23] = Preemergence, 62 g ai/ha, scale 0 to 100
[24] = Preemergence, 125 g ai/ha, scale 0 to 100
[25] = Postemergence, 31 g ai/ha, scale 0 to 100 (0 no effect, 100 complete control)
[26] = Preemergence, rate not given, scale 0 to 100, 0 no effect, 100 complete control
[27] = Postemergence, 250 g ai/ha, scale 0 to 100 (0 no effect, 100 complete control)

O=C1CCCC(O)=C1C(=O)c1cnc(-c2ccccc2)n(C2CCCCC2)c1=O [Compound 128, 3-cyclohexyl-5-[(2-hydroxy-6-oxo-1-cyclohexen-1-yl)carbonyl]-2-phenyl-4(3H)-pyrimidinone]
50: Plant response rating, Crabgrass, Large [1, 18] | Plant response rating, Surinam Grass [11, 19] | Plant response rating, Kochia [12, 23] | Plant response rating, Kochia [12, 24]
60: Plant response rating, Crabgrass, Large [1, 20] | Plant response rating, Crabgrass, Large [1, 23] | Plant response rating, Dallisgrass [3, 19]
25: Plant response rating, Crabgrass, Large [1, 22] | Plant response rating, Bluegrass [4, 23] | Plant response rating, Bluegrass [4, 24] | Plant response rating, Surinam Grass [11, 18] | Plant response rating, Foxtail, Green [14, 17]
100: Plant response rating, Russian Thistle [2, 24] | Plant response rating, Ragweed [9, 24] | Plant response rating, Mallow [13, 24]
40: Plant response rating, Crabgrass, Large [1, 17] | Plant response rating, Kochia [12, 19] | Plant response rating, Mallow [13, 19] | Plant response rating, Mallow [13, 20] | Plant response rating, Foxtail, Green [14, 18]
35: Plant response rating, Guineagrass [5, 19] | Plant response rating, Signalgrass [7, 19] | Plant response rating, Signalgrass [7, 20] | Plant response rating, Sandbur [8, 19] | Plant response rating, Crabgrass, Naked [10, 17] | Plant response rating, Surinam Grass [11, 22] | Plant response rating, Barnyardgrass [15, 17]
90: Plant response rating, Morningglory [6, 24] | Plant response rating, Ragweed [9, 19] | Plant response rating, Ragweed [9, 20] | Plant response rating, Surinam Grass [11, 24] | Plant response rating, Barnyardgrass [15, 19]
75: Plant response rating, Ragweed [9, 18] | Plant response rating, Ragweed [9, 22] | Plant response rating, Crabgrass, Naked [10, 19] | Plant response rating, Crabgrass, Naked [10, 24]
65: Plant response rating, Dallisgrass [3, 23] | Plant response rating, Morningglory [6, 17] | Plant response rating, Morningglory [6, 18] | Plant response rating, Crabgrass, Naked [10, 18] | Plant response rating, Foxtail, Green [14, 20]
15: Plant response rating, Barnyardgrass [15, 24]
98: Plant response rating, Dallisgrass [3, 24]
30: Plant response rating, Dallisgrass [3, 20] | Plant response rating, Guineagrass [5, 18] | Plant response rating, Guineagrass [5, 20] | Plant response rating, Signalgrass [7, 18] | Plant response rating, Surinam Grass [11, 20] | Plant response rating, Kochia [12, 18] | Plant response rating, Kochia [12, 20]
5: Plant response rating, Signalgrass [7, 24] | Plant response rating, Sandbur [8, 17] | Plant response rating, Sandbur [8, 18] | Plant response rating, Sandbur [8, 20] | Plant response rating, Mallow [13, 17] | Plant response rating, Mallow [13, 18] | Plant response rating, Barnyardgrass [15, 23] | Plant response rating, Quackgrass [16, 19]
70: Plant response rating, Crabgrass, Large [1, 19] | Plant response rating, Morningglory [6, 19] | Plant response rating, Morningglory [6, 20] | Plant response rating, Crabgrass, Naked [10, 20] | Plant response rating, Mallow [13, 22] | Plant response rating, Mallow [13, 23] | Plant response rating, Foxtail, Green [14, 19] | Plant response rating, Barnyardgrass [15, 25] | Plant response rating, Barnyardgrass [15, 20]
80: Plant response rating, Surinam Grass [11, 26]
10: Plant response rating, Dallisgrass [3, 17]
20: Plant response rating, Russian Thistle [2, 20] | Plant response rating, Dallisgrass [3, 18] | Plant response rating, Dallisgrass [3, 22] | Plant response rating, Guineagrass [5, 17] | Plant response rating, Sandbur [8, 24] | Plant response rating, Sandbur [8, 26] | Plant response rating, Kochia [12, 17]
0: Plant response rating, Crabgrass, Large [1, 21] | Plant response rating, Russian Thistle [2, 17] | Plant response rating, Russian Thistle [2, 18] | Plant response rating, Russian Thistle [2, 22] | Plant response rating, Dallisgrass [3, 21] | Plant response rating, Bluegrass [4, 17] | Plant response rating, Bluegrass [4, 25] | Plant response rating, Bluegrass [4, 19] | Plant response rating, Bluegrass [4, 20] | Plant response rating, Bluegrass [4, 21] | Plant response rating, Bluegrass [4, 22] | Plant response rating, Guineagrass [5, 21] | Plant response rating, Guineagrass [5, 22] | Plant response rating, Guineagrass [5, 23] | Plant response rating, Guineagrass [5, 24] | Plant response rating, Morningglory [6, 22] | Plant response rating, Morningglory [6, 23] | Plant response rating, Signalgrass [7, 17] | Plant response rating, Signalgrass [7, 21] | Plant response rating, Signalgrass [7, 22] | Plant response rating, Sandbur [8, 21] | Plant response rating, Sandbur [8, 22] | Plant response rating, Ragweed [9, 21] | Plant response rating, Crabgrass, Naked [10, 21] | Plant response rating, Crabgrass, Naked [10, 22] | Plant response rating, Crabgrass, Naked [10, 23] | Plant response rating, Surinam Grass [11, 21] | Plant response rating, Kochia [12, 21] | Plant response rating, Kochia [12, 22] | Plant response rating, Foxtail, Green [14, 21] | Plant response rating, Foxtail, Green [14, 22] | Plant response rating, Foxtail, Green [14, 23] | Plant response rating, Foxtail, Green [14, 24] | Plant response rating, Barnyardgrass [15, 21] | Plant response rating, Barnyardgrass [15, 22] | Plant response rating, Quackgrass [16, 17] | Plant response rating, Quackgrass [16, 18] | Plant response rating, Quackgrass [16, 20] | Plant response rating, Quackgrass [16, 21] | Plant response rating, Quackgrass [16, 22] | Plant response rating, Quackgrass [16, 24]

CCCn1c(-c2ccccc2)ncc(C(=O)C2=C(O)C3CCC(C3)C2=O)c1=O (stereo not shown) [Compound 226]
20: Plant response rating, Dallisgrass [3, 20] | Plant response rating, Quackgrass [16, 19]
95: Plant response rating, Barnyardgrass [15, 19] | Plant response rating, Barnyardgrass [15, 27]
35: Plant response rating, Dallisgrass [3, 27] | Plant response rating, Quackgrass [16, 27]
90: Plant response rating, Ragweed [9, 19] | Plant response rating, Ragweed [9, 20] | Plant response rating, Surinam Grass [11, 19] | Plant response rating, Surinam Grass [11, 27]
85: Plant response rating, Crabgrass, Large [1, 27] | Plant response rating, Barnyardgrass [15, 25] | Plant response rating, Barnyardgrass [15, 20]
40: Plant response rating, Russian Thistle [2, 19] | Plant response rating, Signalgrass [7, 20]
10: Plant response rating, Bluegrass [4, 19] | Plant response rating, Bluegrass [4, 20]
70: Plant response rating, Russian Thistle [2, 27] | Plant response rating, Morningglory [6, 19] | Plant response rating, Morningglory [6, 20] | Plant response rating, Crabgrass, Naked [10, 19] | Plant response rating, Surinam Grass [11, 20] | Plant response rating, Kochia [12, 19] | Plant response rating, Kochia [12, 27] | Plant response rating, Foxtail, Green [14, 20]
65: Plant response rating, Signalgrass [7, 19] | Plant response rating, Signalgrass [7, 27] | Plant response rating, Crabgrass, Naked [10, 20] | Plant response rating, Mallow [13, 27]
30: Plant response rating, Dallisgrass [3, 19] | Plant response rating, Bluegrass [4, 27]
60: Plant response rating, Kochia [12, 20]
50: Plant response rating, Mallow [13, 19] | Plant response rating, Mallow [13, 20]
0: Plant response rating, Bluegrass [4, 25] | Plant response rating, Quackgrass [16, 20]
80: Plant response rating, Guineagrass [5, 19] | Plant response rating, Guineagrass [5, 27] | Plant response rating, Guineagrass [5, 20] | Plant response rating, Morningglory [6, 27] | Plant response rating, Foxtail, Green [14, 19]
98: Plant response rating, Ragweed [9, 27] | Plant response rating, Foxtail, Green [14, 27]
75: Plant response rating, Crabgrass, Large [1, 19] | Plant response rating, Crabgrass, Large [1, 20] | Plant response rating, Sandbur [8, 19] | Plant response rating, Sandbur [8, 27] | Plant response rating, Sandbur [8, 20] | Plant response rating, Crabgrass, Naked [10, 27]
